According to patent US20240217959A1, “New (Homo)Piperidinyl Heterocycles as Sigma Ligands” (ACONDICIONAMIENTO TARRASENSE, priority 2021, published 2024):
pKi: −log10 of the molar value.

Key:
human σ1 receptor = molecular target: T1, human σ1 receptor (Homo sapiens, UniProt Q99720); test: Human σ1 receptor radioligand assay ([3H](+)-pentazocine); conditions: transfected HEK-293 membranes, 5 nM [3H](+)-pentazocine, 37° C. 120 minutes; read-out: Binding σ-1
T1 construct: expressed in transfected cells; host or cells: HEK-293
Protocol: Transfected HEK-293 membranes (7 μg) were incubated with 5 nM of [^3H](+)-pentazocine in assay buffer containing Tris-HCl 50 mM at pH 8. NBS (non-specific binding) was measured by adding 10 μM haloperidol. The binding of the test compound was measured at either one concentration (% inhibition at 1 or 10 μM) or five different concentrations to determine affinity values (Ki). Plates were incubated at 37° C. for 120 minutes. After the incubation period, the reaction mix was then transferred to MultiScreen HTS, FC plates (Millipore), filtered and plates were washed 3 times with ice-cold 10 mM Tris-HCL (pH 7.4). Filters were dried and counted at approximately 40% efficiency in a MicroBeta scintillation counter (Perkin-Elmer) using EcoScint liquid scintillation cocktail.

human σ2/TMEM97 receptor = molecular target: T2, human σ2/TMEM97 receptor (Homo sapiens, UniProt Q5BJF2); test: Binding assay to human σ2/TMEM97 receptor ([3H]-DTG); conditions: transfected HEK-293 membranes, 10 nM [3H]-DTG, 25° C. 120 minutes; read-out: Binding σ-2
T2 construct: expressed in transfected cells; host or cells: HEK-293
Protocol: Transfected HEK-293 membranes (15 μg) were incubated with 10 nM [^3H]-1,3-Di-o-tolylguanidine (DTG) in assay buffer containing Tris-HCl 50 mM at pH 8.0. NSB (non-specific binding) was measured by adding 10 μM haloperidol. The binding of the test compound was measured at either one concentration (% inhibition at 1 or 10 μM) or five different concentrations to determine affinity values (Ki). Plates were incubated at 25° C. for 120 minutes. After the incubation period, the reaction mix was transferred to MultiScreen HTS, FC plates (Millipore), filtered and washed 3 times with ice-cold 10 mM Tris-HCL (pH 8.0). Filters were dried and counted at approximately 40% efficiency in a MicroBeta scintillation counter (Perkin-Elmer) using EcoScint liquid scintillation cocktail.

T2 sequence (Q5BJF2 whole entry): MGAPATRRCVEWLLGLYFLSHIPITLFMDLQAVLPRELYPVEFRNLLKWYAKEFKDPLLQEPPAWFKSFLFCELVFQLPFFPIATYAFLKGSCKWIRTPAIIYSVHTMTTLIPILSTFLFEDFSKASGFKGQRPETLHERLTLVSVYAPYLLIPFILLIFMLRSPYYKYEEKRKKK
T1 sequence (Q99720 whole entry): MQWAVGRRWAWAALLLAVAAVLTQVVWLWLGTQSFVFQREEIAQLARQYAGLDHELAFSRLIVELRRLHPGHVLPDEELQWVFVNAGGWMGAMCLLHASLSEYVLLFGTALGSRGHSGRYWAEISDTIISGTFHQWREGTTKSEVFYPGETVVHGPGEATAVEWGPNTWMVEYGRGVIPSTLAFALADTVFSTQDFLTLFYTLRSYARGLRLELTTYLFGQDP

Row | pKi (human σ1 receptor) | pKi (human σ2/TMEM97 receptor) | SMILES
1 | < 6.00 | > 7.00 | CCc1ncc(-c2cc(C)no2)c(C2CCN(CC(=O)N3CCCOCC3)CC2)n1 [Example 3, 2-(4-(2-Ethyl-5-(3-methylisoxazol-5-yl)pyrimidin-4-yl)piperidin-1-yl)-1-(1,4-oxazepan-4-yl)ethanone]
2 | 6.30 to 7.00 | > 7.00 | CCc1ncc(-c2cc(C)no2)c(C2CCN(CCN3CCOCC3)CC2)n1 [Example 10, 4-(2-(4-(2-Ethyl-5-(3-methylisoxazol-5-yl)pyrimidin-4-yl)piperidin-1-yl)ethyl)morpholine]
3 | < 6.00 | 6.30 to 7.00 | CCc1ncc(-c2cccc(C)n2)c(C2CCN(CC(=O)N3CCOCC3)CC2)n1 [Example 14, 2-(4-(2-Ethyl-5-(6-methylpyridin-2-yl)pyrimidin-4-yl)piperidin-1-yl)-1-morpholinoethan-1-one]
4 | < 6.00 | 6.30 to 7.00 | CCc1ncc(-c2ccccn2)c(C2CCN(CC(=O)N3CCOCC3)CC2)n1 [Example 13, 2-(4-(2-Ethyl-5-(pyridin-2-yl)pyrimidin-4-yl)piperidin-1-yl)-1-morpholinoethan-1-one]
5 | 6.00 to 6.30 | > 7.00 | CCc1ncc(-c2cc(C)no2)c([C@H]2CCCN(CC(=O)N3CCOCC3)CC2)n1 [Example 18, (S)-2-(4-(2-Ethyl-5-(3-methylisoxazol-5-yl)pyrimidin-4-yl)azepan-1-yl)-1-morpholinoethan-1-one]
6 | < 6.00 | > 7.00 | Cc1cc(-c2cnc(C(C)C)nc2C2CCN(CC(=O)N3CCOCC3)CC2)on1 [Example 2, 2-(4-(2-Isopropyl-5-(3-methylisoxazol-5-yl)pyrimidin-4-yl)piperidin-1-yl)-1-morpholinoethanone]
7 | < 6.00 | > 7.00 | CCc1ncc(-c2cc(C)no2)c(C2CCN(CCC(=O)N3CCOCC3)CC2)n1 [Example 9, 3-(4-(2-Ethyl-5-(3-methylisoxazol-5-yl)pyrimidin-4-yl)piperidin-1-yl)-1-morpholinopropan-1-one]
8 | < 6.00 | > 7.00 | CCCc1ncc(-c2cc(C)no2)c(C2CCN(CC(=O)N3CCOCC3)CC2)n1 [Example 12, 2-(4-(5-(3-Methylisoxazol-5-yl)-2-propylpyrimidin-4-yl)piperidin-1-yl)-1-morpholinoethan-1-one]
9 | 6.30 to 7.00 | 6.30 to 7.00 | CCc1ncc(-c2cc(C)no2)c([C@@H]2CCCN(CC(=O)N3CCOCC3)CC2)n1 [Example 17, (R)-2-(4-(2-Ethyl-5-(3-methylisoxazol-5-yl)pyrimidin-4-yl)azepan-1-yl)-1-morpholinoethan-1-one]
10 | < 6.00 | > 7.00 | CCc1ncc(-c2cc(C)no2)c(C2CCN(CC(=O)N3CCCN(C)CC3)CC2)n1 [Example 7, 2-(4-(2-Ethyl-5-(3-methylisoxazol-5-yl)pyrimidin-4-yl)piperidin-1-yl)-1-(4-methyl-1,4-diazepan-1-yl)ethanone]
11 | 6.00 to 6.30 | 6.00 to 6.30 | Cc1ccc(-c2ccnc(C)n2)c(C2CCN(CC(=O)N3CCOCC3)CC2)n1 [Example 19, 2-(4-(6-Methyl-3-(2-methylpyrimidin-4-yl)pyridin-2-yl)piperidin-1-yl)-1-morpholinoethan-1-one]
12 | < 6.00 | > 7.00 | CCc1ncc(-c2cc(C)no2)c(C2CCN(CC(=O)N3CCOCC3)CC2)n1 [Example 5, 2-(4-(2-Ethyl-5-(3-methylisoxazol-5-yl)pyrimidin-4-yl)piperidin-1-yl)-1-morpholinoethanone]
13 | 6.00 to 6.30 | > 7.00 | Cc1cc(-c2cnc(C3CC3)nc2C2CCN(CC(=O)N3CCOCC3)CC2)on1 [Example 1, 2-(4-(2-Cyclopropyl-5-(3-methylisoxazol-5-yl)pyrimidin-4-yl)piperidin-1-yl)-1-morpholinoethanone]
14 | 6.00 to 6.30 | 6.00 to 6.30 | CCc1ncc(-c2ccncc2)c(C2CCN(CC(=O)N3CCOCC3)CC2)n1 [Example 15, 2-(4-(2-Ethyl-5-(pyridin-4-yl)pyrimidin-4-yl)piperidin-1-yl)-1-morpholinoethan-1-one]
15 | 6.00 to 6.30 | > 7.00 | CCc1ncc(-c2cc(C)no2)c(C2CCN(CC(=O)N3CCC(F)(F)CC3)CC2)n1 [Example 6, 1-(4,4-Difluoropiperidin-1-yl)-2-(4-(2-ethyl-5-(3-methylisoxazol-5-yl)pyrimidin-4-yl)piperidin-1-yl)ethanone]
16 | < 6.00 | > 7.00 | CCc1ncc(-c2cc(C)no2)c(C2CCN(CC(=O)N3CCC4(CCOC4)CC3)CC2)n1 [Example 4, 2-(4-(2-Ethyl-5-(3-methylisoxazol-5-yl)pyrimidin-4-yl)piperidin-1-yl)-1-(2-oxa-8-azaspiro[4.5]decan-8-yl)ethanone]
17 | < 6.00 | > 7.00 | Cc1cc(-c2cnc(C(F)(F)F)nc2C2CCN(CC(=O)N3CCOCC3)CC2)on1 [Example 8, 2-(4-(5-(3-Methylisoxazol-5-yl)-2-(trifluoromethyl)pyrimidin-4-yl)piperidin-1-yl)-1-morpholinoethanone]
18 | 6.00 to 6.30 | > 7.00 | CCc1ncc(-c2cc(C)no2)c(C2CCN(CC(=O)N3CCCCC3)CC2)n1 [Example 11, 2-(4-(2-Ethyl-5-(3-methylisoxazol-5-yl)pyrimidin-4-yl)piperidin-1-yl)-1-(piperidin-1-yl)ethan-1-one]
19 | < 6.00 | 6.00 to 6.30 | CCc1ncc(-c2nccn2C)c(C2CCN(CC(=O)N3CCOCC3)CC2)n1 [Example 16, 2-(4-(2-Ethyl-5-(1-methyl-1H-imidazol-2-yl)pyrimidin-4-yl)piperidin-1-yl)-1-morpholinoethan-1-one]
